# Results as given in patent US6494824B1, “Medical, radiotherapy source vial” (priority 1998, dated 2002).
# What was measured:
# [1] = Radiation exposure measured during radiogas balloon treatment; format: in vivo, porcine; settings: 250-300 mCi in balloon
# Method: Prior art systems can falter with regards to dose homogeneity, optimal efficacy, radiation safety restrictions, patient handling, and radionuclide availability. The present medical radiation treatment system was developed and tested for irradiation with historically safe xenon-133 inert radiogas. In order to determine the efficacy of xenon-133 radiogas to inhibit neointimal formation and subsequent luminal restenosis, angioplasty balloon injury was performed in the coronary arteries of 17 juvenile porcine subjects. […] This was performed using multiple trials with Cook GRII® balloon catheters of various coronary sizes with different quantities of xenon-133 (millicuries), exposure time (min.), and volumes (cc). Customized solid water phantoms, layered Gafchromic film, laser/light densitometry readings, and referenced dosimetry graphics were standardly applied to obtain these referenced measurements.
# Localization of the radiogas filled balloon was verified by Gamma Camera and fluoroscopic imaging. The radiation exposure measured 100 mR/h at the chest wall and 5 mR/h immediately bedside. Two weeks following treatment, the animals were harvested, the arteries perfusion fixed, stained, and morphometrically analyzed. […]
# [2] = test system: balloon-injured coronary arteries (neointimal formation); test: Angioplasty balloon injury of porcine coronary arteries, xenon-133 radiogas balloon irradiation, morphometry after two weeks; format: in vivo; settings: for IA (intimal area): two weeks after treatment, control 1.04 ± 0.20; for IA/FL (intimal area corrected for medical fracture length): control 0.55 ± 0.06
# Method: Prior art systems can falter with regards to dose homogeneity, optimal efficacy, radiation safety restrictions, patient handling, and radionuclide availability. The present medical radiation treatment system was developed and tested for irradiation with historically safe xenon-133 inert radiogas. In order to determine the efficacy of xenon-133 radiogas to inhibit neointimal formation and subsequent luminal restenosis, angioplasty balloon injury was performed in the coronary arteries of 17 juvenile porcine subjects. Following balloon injury of the coronary arteries of these porcine subjects, 3.0 to 3.5 mm balloons of 30 to 40 mm lengths were positioned to cover and overlap the injured vessel segment. A negative pressure was obtained in the radiocatheter prior to placement. Xenon-133 activity of 250-300 mCi (in 2.0-2.5 cc's) was injected to fill the balloon segment, uniformly abutting the lumen wall. A dose of either 15 Gy or 30 Gy was prescribed and delivered to a target tissue depth of 0.25 mm from the expanded balloon surface. The dwell time during inflation was 2±0.5 minutes (avg.). Prior in vitro dosimetry trials were performed to obtain reference micro-dosimetry results. Summary data analysis including reference tables and graphics, were performed and applied for delivery ranges as described above. This was performed using multiple trials with Cook GRII® balloon catheters of various coronary sizes with different quantities of xenon-133 (millicuries), exposure time (min.), and volumes (cc). Customized solid water phantoms, layered Gafchromic film, laser/light densitometry readings, and referenced dosimetry graphics were standardly applied to obtain these referenced measurements.
# Localization of the radiogas filled balloon was verified by Gamma Camera and fluoroscopic imaging. The radiation exposure measured 100 mR/h at the chest wall and 5 mR/h immediately bedside. Two weeks following treatment, the animals were harvested, the arteries perfusion fixed, stained, and morphometrically analyzed. The intimal area (IA) was compared between the irradiated and control arteries.
smiles,measurement,setting,value
"[133Xe] [Xe-133, xenon-133]",radiation exposure,[1]; at the chest wall,100 mR/h
same,radiation exposure,[1]; immediately bedside,5 mR/h
same,% absolute ratio reduction (IA/FL vs control),[2]; 15 Gy,71%
same,IA (intimal area),"[2]; 15 Gy at 0.25 mm tissue depth, n = 9",0.34 ± 0.17 mm^2
same,share of group showing IA (mm^2) of ≦0.06,[2]; 15 Gy group,66%
same,IA/FL (intimal area corrected for medical fracture length),"[2]; 15 Gy, n = 9",0.16 ± 0.08
same,% absolute ratio reduction (IA/FL vs control),[2]; 30 Gy,45%
same,IA (intimal area),"[2]; 30 Gy at 0.25 mm tissue depth, n = 8",0.38 ± 0.18 mm^2
same,share of group showing IA (mm^2) of ≦0.06,[2]; 30 Gy group,44%
same,thrombosis,[2]; 30 Gy group,slight trend toward increased thrombosis
same,IA/FL (intimal area corrected for medical fracture length),"[2]; 30 Gy, n = 8",0.32 ± 0.12
same,neointimal formation (conclusion from harvested vessels),"[2]; porcine model, radiogas balloon catheter",effective in markedly reducing neointimal formation
